Laboratory results from article PMC5680195, “Structural basis of small molecule ATPase inhibition of a human mitotic kinesin motor protein” (Scientific Reports, 2017).

Assays:
KIFC3 = target: T1, KIFC3 (Homo sapiens, UniProt Q9BVG8); test: X-ray crystal structure, […] A; conditions: Mg2+; nucleotide-binding cleft; no added nucleotide stated; pH 7.5; 18 °C
T1 construct: motor domain K443-L770, p28a-LIC (EF442785 is printed beside the vector), E. coli BL21-CodonPlus (DE3)-RIL, HisTrap purified
T1 sequence (Q9BVG8 443-770): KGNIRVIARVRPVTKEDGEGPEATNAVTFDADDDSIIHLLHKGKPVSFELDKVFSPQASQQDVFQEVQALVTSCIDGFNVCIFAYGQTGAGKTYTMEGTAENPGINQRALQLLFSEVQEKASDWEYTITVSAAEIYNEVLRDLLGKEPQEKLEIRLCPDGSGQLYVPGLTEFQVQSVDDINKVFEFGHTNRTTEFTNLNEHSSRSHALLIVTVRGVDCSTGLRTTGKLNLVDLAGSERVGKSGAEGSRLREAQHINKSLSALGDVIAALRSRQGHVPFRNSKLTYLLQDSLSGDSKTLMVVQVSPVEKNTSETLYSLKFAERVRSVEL

KIFC1 = target: T2, KIFC1 (Homo sapiens, UniProt Q9BW19, T368P); test: X-ray crystal structure, […] A; conditions: Mg2+; nucleotide-binding cleft; 5-fold molar excess Mg-ADP added; pH 7.5; 18 °C
T2 construct: motor domain N307-C663 with PCR-induced T368P (loop L2, disordered), pFBOH-LIC, Hi-Five insect cells, Ni-NTA purified
T2 sequence (Q9BW19 307-663 T368P): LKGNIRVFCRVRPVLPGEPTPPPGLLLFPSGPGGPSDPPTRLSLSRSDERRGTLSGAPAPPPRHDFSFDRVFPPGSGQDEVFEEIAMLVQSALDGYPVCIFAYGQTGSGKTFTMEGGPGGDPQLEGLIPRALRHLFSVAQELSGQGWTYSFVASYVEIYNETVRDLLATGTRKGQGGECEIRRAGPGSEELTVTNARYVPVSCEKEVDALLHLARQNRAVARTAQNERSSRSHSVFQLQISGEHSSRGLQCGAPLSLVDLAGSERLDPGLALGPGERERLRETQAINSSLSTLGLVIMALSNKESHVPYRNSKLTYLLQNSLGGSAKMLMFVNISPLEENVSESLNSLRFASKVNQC

Nc1ncnc2c1ncn2[C@@H]1O[C@H](COP(=O)(O)OP(=O)(O)O)[C@@H](O)[C@H]1O [ADP]
X-ray crystal structure, 1.85 A (KIFC3): Both proteins were crystallized bound to Mg-ADP and are reported here for the first time
X-ray crystal structure, 2.25 A (KIFC1): Both proteins were crystallized bound to Mg-ADP and are reported here for the first time
